In paper PMC9340768 (Journal of Medicinal Chemistry, 2022):
Starred links: 1 amine or outer side, 2 acyl side, 3 side chain; linkers in the order of their positions; H or OH if unused. Positions of bridges follow the written chain, without caps; N, C: chain ends. Non-standard residues stand in square brackets, D forms with d. Residues, ends and D or L forms follow the SMILES beside them. TATA = O=C(CC[*:1])N1CN(C(=O)CC[*:2])CN(C(=O)CC[*:3])C1; tBuAla = CC(C)(C)C[C@H](N)C(=O)O; Nle = CCCC[C@H](N)C(=O)O

Columns and labels:
Nectin-4 = test: Cross-species binding of the Nectin-4 Bicycle; set-up: species or system mouse, rat, monkey, and human
CD137 = test: Cross-species binding of the CD137 Bicycle; set-up: species or system human and monkey

Compound: CSCC[C@@H]1NC(=O)[C@@H]2CSCCC(=O)N3CN(CN(C3)C(=O)CCSC[C@H](N)C(=O)N3CCC[C@H]3C(=O)N[C@@H](Cc3cccc4ccccc34)C(=O)N[C@H](CC(=O)O)C(=O)N2)C(=O)CCSC[C@@H](C(N)=O)NC(=O)[C@H](Cc2c[nH]c3ccccc23)NC(=O)[C@@H]2C[C@@H](O)CN2C(=O)[C@@H]2CCCN2C(=O)[C@H]([C@@H](C)O)NC(=O)[C@H](CO)NC(=O)[C@H](Cc2c[nH]c3ccccc23)NC(=O)[C@H](CC(=O)O)NC(=O)[C@H](CCCCNC(=N)N)NC1=O [BCY8116]
- species cross-reactivity of binding to Nectin-4 (Nectin-4): binds to mouse, rat, monkey, and human Nectin-4

Compound: CCCC[C@@H]1NC(=O)[C@H](Cc2ccc(O)cc2)NC(=O)[C@@H]2CCCN2C(=O)[C@H](CC(=O)O)NC(=O)[C@H](C)NC(=O)[C@H](Cc2ccccc2)NC(=O)[C@@H]2CSCCC(=O)N3CN(CN(C3)C(=O)CCSC[C@@H](C(=O)N[C@@H](C)C(N)=O)NC1=O)C(=O)CCSC[C@H](NC(C)=O)C(=O)N[C@@H](CC(C)(C)C)C(=O)N1CCC[C@H]1C(=O)N[C@@H](CCC(=O)O)C(=O)N[C@H](CCCCN)C(=O)N1CCC[C@H]1C(=O)N[C@@H](Cc1ccc(O)cc1)C(=O)N2 [BCY8928] (Ac-C[tBuAla]PE[dK]PYCFADPY[Nle]CA-NH2; linker 1-8-15 via TATA)
- species cross-reactivity of binding to CD137 (CD137): binds only to human and monkey CD137
